Structures are written as SMILES.

The nature of data set [1]: Metabolic stability in human liver microsomes. Type of data set: in vitro ADME. As to conditions: human liver microsomes 0.5 mg/mL, NADPH and UDPGA, 37° C., read-out: In vitro t1/2. The method, then:
FIG. 1. Metabolic stability of compounds in human liver microsomal incubations. […] Concentrations at specified times were determined by LC-MS/MS.
The incubation reactions at various time points were quenched by adding 2× volumes of acetonitrile containing 100 nM reserpine. The quenched incubation samples were centrifuged at 4000 RPM for 10 min, and the supernatants injected for LC/MS/MS analysis. LC/MS/MS analysis was carried out on a AB Sciex 4000 Q Trap LC/MS/MS system coupled with Shimadzu Prominence UFLCXR 20 series (including a CBM-20A controller, two LC-20ADXR solvent delivery units, SIL-20AC HT autosampler, CTO-20A column oven, and a SPD-20A UV detector).
In general terms: Microsomes from liver hold many membrane-bound enzymes, among them those of drug oxidation.

Data set [2] is described as follows: Lung tissue and plasma concentration ratios. To be noted: mice, single oral dose 5 mg/kg, dosed together with dasatinib, all time points. The format is in vivo, CD-1 mouse. On the procedure: CD-1 mouse (approximate weight 30 g, N=3) were dosed by oral gavage at 10 mL/kg. Blood samples were collected into tubes containing EDTA as the anticoagulant at 1, 2, 4, 10 h post-dosing for Compound X, and predose, 1, 2, 3, 8, 10 and 24 h post-dosing for Compound XI. The plasma samples were prepared by centrifugation. Lung samples were also collected at each of the above time points. The lung samples were homogenated in 4× distilled water (v/w). The plasma samples and the homogenated lung tissue samples were mixed with 3× volumes of acetonitrile containing 100 nM reserpine as the internal standard, and centrifuged at 4000 RPM for 15 min. The supernatants were injected for LC/MS analysis which were carried out on a AB Sciex 4000 Q Trap LC/MS/MS system coupled with Shimadzu Prominence UFLCXR 20 series (including a CBM-20A controller, two LC-20ADXR solvent delivery units, SIL-20AC HT autosampler, CTO-20A column oven, and a SPD-20A UV detector). The samples were separated on a Phenomenex Columbus column (C18, 4 μm, 50×2 mm) eluted with two solvent systems: 2 mM ammonium acetate in water containing 0.1% formic acid (A) and methanol (B) at a linear gradient starting at 25%. Electrospray ionization in positive mode was used to acquire LC/MS/MS data.

Consider `[2H]c1cc(C)c(NC(=O)c2cnc(Nc3cc(N4CCCCC4)nc(C)n3)s2)c(Cl)c1` [Compound I, N-(2-chloro-4-deuterio-6-methyl-phenyl)-2-[[2-methyl-6-(1-piperidyl)pyrimidin-4-yl]amino]thiazole-5-carboxamide], for which, in data set [1], the half-life at 1 μM is 4.68 h.
For the molecule `Cc1nc(Nc2ncc(C(=O)Nc3c(C)cccc3Cl)s2)cc(N2CC[C@H](O)C2)n1` [Compound X, N-(2-chloro-6-methylphenyl)-2-[[2-methyl-6-((S)-3-hydroxypyrrolidin-1-yl)pyrimidin-4-yl]amino]thiazole-5-carboxamide], in data set [2], the “ratio of lung tissue concentration to plasma concentration, compared to dasatinib” value was “significantly lower ratios”.
For `Cc1nc(Nc2ncc(C(=O)Nc3c(C)cccc3Cl)s2)cc(N2CC[C@@H](O)C2)n1` [Compound XI, N-(2-chloro-6-methylphenyl)-2-[[2-methyl-6-((R)-3-hydroxypyrrolidin-1-yl)pyrimidin-4-yl]amino]thiazole-5-carboxamide], in data set [2], the “ratio of lung tissue concentration to plasma concentration, compared to dasatinib” value was “significantly lower ratios”.

For the origin of these results see US11236080B2, “Protein kinase inhibitors” (Princeton Drug Discovery Inc, priority 2016, dated 2022).
